Source: patent US7718160B2, “Radiolabeled compounds and liposomes and their method of making and using same” (The Board of Regents of the University of Texas System, priority 2002, dated 2010)
Entries after “also recorded” stand apart in the source; their conditions may differ.

Legend:
Type in all cases: in vivo
[1] = Normal rat biodistribution of ^99mTc-liposomes at 20 hours after intravenous injection
Experimental: For comparison, biodistributions of the ^99mTc-“SNS/S” complexes used for liposome labeling were also performed.

[2] = Gamma camera images of normal rats after intravenous injection (^99mTc); conditions: rat, baseline, 1 hour, 4 hours and 20 hours after intravenous injection
Excerpt: (H: Heart; S: Spleen; L: Liver; Bo: Bowel; B1: Bladder.)
(H: Heart; S: Spleen; L: Liver; Bo: Bowel.)
From the images, significant differences between ^99mTc-liposome labeled with ^99mTc-“BMEDA” and ^99mTc-“BMEDA” alone were observed. […] From the images, significant differences between ^99mTc-liposome labeled with ^99mTc-“BMEDA+BT” and ^99mTc-“BMEDA+BT” alone were observed.

[3] = Gamma camera images of normal rats after intravenous injection (^186Re); conditions: rat, baseline, 1 hour, 4 hours, 24 hours and 72 hours after intravenous injection
[4] = Normal rat biodistribution of ^186Re-liposomes at 72 hours after intravenous injection

## CCN(CC)CCN(CCS)CC[S][99Tc]1(=[O])[S]CCN(CCN(CC)CC)CC[S]1 [^99mTc-“BMEDA” alone]
[1]
  distribution behavior: does not
[2]
  distribution seen in gamma camera images: fast blood clearance, fast excretion into bowel and urine, and no spleen accumulation

## CCN(CC)CCN(CCS)CC[S][186Re]1(=[O])[S]CCN(CCN(CC)CC)CC[S]1 [^186Re-“BMEDA” Alone]
[3]
  distribution seen in gamma camera images: significant excretion from the hepatobiliary system and no apparent spleen accumulation; also recorded: fast blood clearance, fast excretion into bowel and urine, and no spleen accumulation
[3]; listed as 186Re-“BMBDA” alone
  distribution seen in gamma camera images: fast blood clearance, fast excretion into bowel and urine, and no spleen accumulation
[4]; normal rat
  % ID/Gram (Average ± Sd), Blood: 0.022 ± 0.001 % ID/Gram
  % ID/Gram (Average ± Sd), Bowel: 0.34 ± 0.19 % ID/Gram
  % ID/Gram (Average ± Sd), Brain: 0.0035 ± 0.0007 % ID/Gram
  % ID/Gram (Average ± Sd), Feces: 4.82 ± 1.53 % ID/Gram
  % ID/Gram (Average ± Sd), Femur: 0.014 ± 0.000 % ID/Gram
  % ID/Gram (Average ± Sd), Heart: 0.069 ± 0.007 % ID/Gram
  % ID/Gram (Average ± Sd), Kidney: 4.49 ± 0.37 % ID/Gram
  % ID/Gram (Average ± Sd), Liver: 0.54 ± 0.05 % ID/Gram
  % ID/Gram (Average ± Sd), Lung: 0.23 ± 0.03 % ID/Gram
  % ID/Gram (Average ± Sd), Muscle: 0.0048 ± 0.0005 % ID/Gram
  % ID/Gram (Average ± Sd), Skin: 0.029 ± 0.012 % ID/Gram
  % ID/Gram (Average ± Sd), Spleen: 0.38 ± 0.14 % ID/Gram
  % ID/Gram (Average ± Sd), Testis: 0.015 ± 0.003 % ID/Gram
  % ID/Gram (Average ± Sd), Urine: 0.79 ± 0.08 % ID/Gram
  % ID/Organ (Average ± Sd), Blood: 0.49 ± 0.04 % ID/Organ
  % ID/Organ (Average ± Sd), Bowel: 6.67 ± 3.31 % ID/Organ
  % ID/Organ (Average ± Sd), Brain: 0.0052 ± 0.0007 % ID/Organ
  % ID/Organ (Average ± Sd), Feces: 20.54 ± 4.35 % ID/Organ
  % ID/Organ (Average ± Sd), Femur: 0.58 ± 0.06 % ID/Organ
  % ID/Organ (Average ± Sd), Heart: 0.076 ± 0.005 % ID/Organ
  % ID/Organ (Average ± Sd), Kidney: 10.42 ± 0.93 % ID/Organ
  % ID/Organ (Average ± Sd), Liver: 5.97 ± 0.35 % ID/Organ
  % ID/Organ (Average ± Sd), Lung: 0.37 ± 0.06 % ID/Organ
  % ID/Organ (Average ± Sd), Muscle: 0.79 ± 0.07 % ID/Organ
  % ID/Organ (Average ± Sd), Skin: 1.48 ± 0.51 % ID/Organ
  % ID/Organ (Average ± Sd), Spleen: 0.21 ± 0.05 % ID/Organ
  % ID/Organ (Average ± Sd), Testis: 0.058 ± 0.004 % ID/Organ
  % ID/Organ (Average ± Sd), Urine: 26.93 ± 4.23 % ID/Organ
[4]; rat
  spleen accumulation: did not show the spleen accumulation behavior
